{"source": "paper PMC13198932", "about": "“Pyrazolone-based ERO1 inhibitors in ERO1-driven triple-negative breast cancer and SEPN1-related myopathy: Structure–activity relationship and therapeutic potential” (Pharmacological research, 2025)", "key": {"E0771 cells": {"tested_on": "E0771 cells", "assay": "MTS assay of metabolic activity in E0771 cells", "assay_type": "cell-based, murine", "details": "E0771, dose-response, 24 h, 1 % FBS", "method": "Six thousand cells (MDAMB231 and E0771) per well were seeded in 96-well plates and cultured in medium containing 1 % FBS. Cells were treated with varying concentrations of compounds and, after 24 h, incubated with MTS [3-(4,5-dimethylthiazol-2-yl)-5-(3-carboxymethoxyphenyl)-2-(4 sulfophenyl)2Htetrazolium]and PMS (phenazine methosulfate), following the instructions of the CellTiter 96® Aqueous Non-Radioactive Cell Proliferation Assay (Promega). Measurements were performed using a TECAN Infinite M200 plate reader with […] at 490 nm."}, "ERO1 in E0771 cells": {"target": "T1, ERO1 in E0771 cells (Mus musculus, UniProt Q8R180)", "T1 construct": "endogenous in cells; host or cells: E0771", "T1 sequence (Q8R180 24-464)": "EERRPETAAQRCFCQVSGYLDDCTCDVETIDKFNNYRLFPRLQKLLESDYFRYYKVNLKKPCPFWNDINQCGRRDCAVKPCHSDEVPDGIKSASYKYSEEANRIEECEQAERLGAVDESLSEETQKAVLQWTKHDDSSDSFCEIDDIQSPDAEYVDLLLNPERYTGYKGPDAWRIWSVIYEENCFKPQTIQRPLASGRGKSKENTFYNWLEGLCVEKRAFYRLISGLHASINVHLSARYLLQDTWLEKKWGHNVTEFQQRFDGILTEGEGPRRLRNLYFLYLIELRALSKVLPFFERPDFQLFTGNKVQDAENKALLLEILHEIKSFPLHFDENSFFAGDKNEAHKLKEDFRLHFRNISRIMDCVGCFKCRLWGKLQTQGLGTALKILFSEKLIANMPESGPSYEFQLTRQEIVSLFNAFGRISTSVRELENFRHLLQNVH", "assay": "ERO1 redox state by non-reducing immunoblot in E0771 cells", "assay_type": "cell-based, murine", "details": "E0771, Fig. 4F", "method": "MDAMB231 and E0771 cells were maintained in Dulbecco’s Modified Eagle’s Medium supplemented with 1 % fetal bovine serum and seeded at 70 % confluency in six-well plates one day prior to the experiment. Cells were treated with DTT (10 mM) and/or ERO1A inhibitors for 1–5 h. At the time of collection, phosphate-buffered saline containing 10 mM NEM was added, and cells were incubated on ice for 10 min in lysis buffer (50 mM Tris-HCl, pH 7.4; 150 mM NaCl; 1 % Triton X-100; 0.1 % SDS; 1 % sodium deoxycholate; protease inhibitors; and 10 mM NEM). Protein concentrations were determined using the BCA assay, and equal amounts of protein were separated by non-reducing SDS-PAGE followed by immunoblotting with a polyclonal antibody against ERO1A [33]."}, "[1]": {"target": "T2, ERO1 in WT and SEPN1 KO myotubes (Mus musculus, UniProt Q8R180)", "T2 construct": "endogenous in cells; host or cells: primary myotubes from WT and SEPN1 KO C57BL/6 mice", "T2 sequence (Q8R180 24-464)": "T1 sequence (Q8R180 24-464)", "assay": "ERO1 redox state by non-reducing immunoblot in WT and SEPN1 KO myotubes", "assay_type": "cell-based, mice", "details": "3 h treatment", "method": "Muscle stem cells were isolated from muscles of 1-month-old wild-type (WT) and SEPN1 knockout (KO) mice using a tissue dissociation protocol with the gentleMACS™ Octo Dissociator with Heaters (Miltenyi Biotec, Bergisch Gladbach, Germany), followed by magnetic depletion. To generate myotubes, cells were cultured on Matrigel-coated Ibidi μ-Slide 8 well chambers (Cat. No. 80826, Ibidi GmbH, Gräfelfing, Germany) in DMEM (EuroClone, Pero, Milan, Italy) supplemented with 20 % fetal bovine serum (EuroClone), 3 % chick embryo extract (Cat. 11485015, Fisher Scientific SAS), 10 ng/mL basic fibroblast growth factor (Cat. 13256029, Life Technologies Europe BV), 1 % GlutaMAX (Gibco; Thermo Fisher Scientific, Waltham, MA, USA), and 1 % penicillin-streptomycin (EuroClone).\nAfter 48 h of proliferation, cells were cultured for an additional 2 days in medium containing 2 % horse serum (EuroClone) to induce differentiation, then harvested for analysis. For ERO1 redox state, cells were treated for 3 h with either EN460 or I29, harvested and followed by a non-reducing ERO1 Immunoblot."}}}
{"smiles": "O=C1/C(=C/c2ccc(-c3ccccc3)o2)C(C(F)(F)F)=NN1c1ccccc1F", "note": "[I29]", "values": [{"measurement": "metabolic activity (MTS assay)", "setting": "E0771 cells", "value": "superior efficacy of I29 over EN460"}, {"measurement": "ERO1 redox assay compared with EN460", "setting": "ERO1 in E0771 cells", "value": "superior efficacy of I29 over EN460"}, {"measurement": "reduced state of ERO1 compared with EN460", "setting": "[1]", "value": "more effective than EN460"}]}
